Each compound was assayed against human P2X7 (Homo sapiens (Human), UniProt Q99572) (assay: P2X7 antagonism in human PBMCs (IL-1β release after LPS + Bz-ATP, ELISA)). Conditions: 10 μM test compound, human PBMCs, LPS + Bz-ATP.
Type: cell-based

Sequence of human P2X7 (Q99572 whole entry): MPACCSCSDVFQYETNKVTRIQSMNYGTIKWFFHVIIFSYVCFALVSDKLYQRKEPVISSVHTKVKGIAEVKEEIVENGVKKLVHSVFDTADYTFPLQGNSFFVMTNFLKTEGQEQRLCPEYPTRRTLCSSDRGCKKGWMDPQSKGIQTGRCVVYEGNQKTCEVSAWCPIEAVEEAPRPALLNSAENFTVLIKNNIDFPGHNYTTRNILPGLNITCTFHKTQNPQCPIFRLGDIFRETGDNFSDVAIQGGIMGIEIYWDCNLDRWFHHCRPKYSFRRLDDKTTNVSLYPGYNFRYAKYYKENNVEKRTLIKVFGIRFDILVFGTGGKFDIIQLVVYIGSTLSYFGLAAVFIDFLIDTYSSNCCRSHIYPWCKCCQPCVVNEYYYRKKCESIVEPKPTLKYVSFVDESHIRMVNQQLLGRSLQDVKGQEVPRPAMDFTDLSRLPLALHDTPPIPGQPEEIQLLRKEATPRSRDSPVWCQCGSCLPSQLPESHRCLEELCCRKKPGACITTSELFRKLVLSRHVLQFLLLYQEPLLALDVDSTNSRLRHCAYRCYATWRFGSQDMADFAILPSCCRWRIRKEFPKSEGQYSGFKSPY

Compound | PBMC 10 μM (% control)
Cc1ccnc(-n2nnc3c2CCN(C(=O)c2cccc(C(F)(F)F)c2Cl)[C@H]3C)n1 (single isomer, unassigned) [Example 439, (S*)-(2-chloro-3-(trifluoromethyl)phenyl)(4-methyl-1-(4-methylpyrimidin-2-yl)-6,7-dihydro-1H-[1,2,3]triazolo[4,5-c]pyridin-5(4H)-yl)methanone] | 1.2

Same assay, conditions: human PBMCs, test compound 1 μM

Compound | PBMC 1 μM (% control)
O=C(c1cccc(Cl)c1Cl)N1CCc2c(ncn2-c2ccccc2)C1 [Example 3, (2,3-Dichlorophenyl)(1-phenyl-6,7-dihydro-1H-imidazo[4,5-c]pyridin-5(4H)-yl)methanone] | 23.0
CC1c2ncn(-c3ccccn3)c2CCN1C(=O)c1cccc(C(F)(F)F)c1Cl (stereo not shown) [Example 17, (2-Chloro-3-(trifluoromethyl)phenyl)(4-methyl-1-(pyridin-2-yl)-6,7-dihydro-1H-imidazo[4,5-c]pyridin-5(4H)-yl)methanone] | 6.5

Same assay, conditions: human PBMCs, test compound 10 μM

PBMC 10 μM (% control) | Compound
−8.2 | Cc1ccnc(-n2nnc3c2CCN(C(=O)c2ccnc(C(F)(F)F)c2Cl)[C@@H]3C)c1 (single isomer, unassigned) [Example 359, (R*)-(3-chloro-2-(trifluoromethyl)pyridin-4-yl)(4-methyl-1-(4-methylpyridin-2-yl)-6,7-dihydro-1H-[1,2,3]triazolo[4,5-c]pyridin-5(4H)-yl)methanone]
−7.1 | Cc1ccnc(-n2nnc3c2CCN(C(=O)c2ccnc(C(F)(F)F)c2Cl)[C@H]3C)c1 (single isomer, unassigned) [Example 360, (S*)-(3-chloro-2-(trifluoromethyl)pyridin-4-yl)(4-methyl-1-(4-methylpyridin-2-yl)-6,7-dihydro-1H-[1,2,3]triazolo[4,5-c]pyridin-5(4H)-yl)methanone]
108.2 | Cc1cc(-n2nnc3c2CCN(C(=O)c2ccc(Cl)c(C(F)(F)F)c2)[C@@H]3C)ncc1F (single isomer, unassigned) [Example 365, (R*)-(4-chloro-3-(trifluoromethyl)phenyl)(1-(5-fluoro-4-methylpyridin-2-yl)-4-methyl-6,7-dihydro-1H-[1,2,3]triazolo[4,5-c]pyridin-5(4H)-yl)methanone]
2.0 | Cc1cc(-n2nnc3c2CCN(C(=O)c2ccc(Cl)c(C(F)(F)F)c2)[C@H]3C)ncc1F (single isomer, unassigned) [Example 366, (S*)-(4-chloro-3-(trifluoromethyl)phenyl)(1-(5-fluoro-4-methylpyridin-2-yl)-4-methyl-6,7-dihydro-1H-[1,2,3]triazolo[4,5-c]pyridin-5(4H)-yl)methanone]
74.5 | Cc1cc(-n2nnc3c2CCN(C(=O)c2ccnc(C(F)(F)F)c2F)[C@H]3C)ncc1F (single isomer, unassigned) [Example 369, (S*)-(3-fluoro-2-(trifluoromethyl)pyridin-4-yl)(1-(5-fluoro-4-methylpyridin-2-yl)-4-methyl-6,7-dihydro-1H-[1,2,3]triazolo[4,5-c]pyridin-5(4H)-yl)methanone]
96.3 | Cc1ccnc(-n2nnc3c2CCN(C(=O)c2cccc(OC(F)(F)F)c2)[C@@H]3C)c1 (single isomer, unassigned) [Example 376, (R*)-(4-methyl-1-(4-methylpyridin-2-yl)-6,7-dihydro-1H-[1,2,3]triazolo[4,5-c]pyridin-5(4H)-yl)(3-(trifluoromethoxy)phenyl)methanone]
113.7 | C[C@H]1c2nnn(-c3cccc(C(F)(F)F)n3)c2CCN1C(=O)c1cccc(C(F)(F)F)c1Cl (single isomer, unassigned) [Example 380, (S*)-(2-chloro-3-(trifluoromethyl)phenyl)(4-methyl-1-(6-(trifluoromethyl)pyridin-2-yl)-6,7-dihydro-1H-[1,2,3]triazolo[4,5-c]pyridin-5(4H)-yl)methanone]
87.3 | Cc1cc(-n2nnc3c2CCN(C(=O)c2cccc(C(F)(F)F)c2Cl)[C@H]3C)ncc1F (single isomer, unassigned) [Example 383, (S*)-(2-chloro-3-(trifluoromethyl)phenyl)(1-(5-fluoro-4-methylpyridin-2-yl)-4-methyl-6,7-dihydro-1H-[1,2,3]triazolo[4,5-c]pyridin-5(4H)-yl)methanone]
107.5 | Cc1cccc(-n2nnc3c2CCN(C(=O)c2cccc(C(F)(F)F)c2F)[C@@H]3C)n1 (single isomer, unassigned) [Example 386, (R*)-(2-fluoro-3-(trifluoromethyl)phenyl)(4-methyl-1-(6-methylpyridin-2-yl)-6,7-dihydro-1H-[1,2,3]triazolo[4,5-c]pyridin-5(4H)-yl)methanone]
88.9 | Cc1cccc(-n2nnc3c2CCN(C(=O)c2cccc(Cl)c2Cl)[C@@H]3C)n1 (single isomer, unassigned) [Example 389, (R*)-(2,3-dichlorophenyl)(4-methyl-1-(6-methylpyridin-2-yl)-6,7-dihydro-1H-[1,2,3]triazolo[4,5-c]pyridin-5(4H)-yl)methanone]
6.5 | Cc1cccc(-n2nnc3c2CCN(C(=O)c2cccc(Cl)c2Cl)[C@H]3C)n1 (single isomer, unassigned) [Example 390, (S*)-(2,3-dichlorophenyl)(4-methyl-1-(6-methylpyridin-2-yl)-6,7-dihydro-1H-[1,2,3]triazolo[4,5-c]pyridin-5(4H)-yl)methanone]
112.1 | Cc1ccnc(-n2nnc3c2CCN(C(=O)c2cccc(Cl)c2Cl)[C@@H]3C)n1 (single isomer, unassigned) [Example 391, (R*)-(2,3-dichlorophenyl)(4-methyl-1-(4-methylpyrimidin-2-yl)-6,7-dihydro-1H-[1,2,3]triazolo[4,5-c]pyridin-5(4H)-yl)methanone]
6.2 | Cc1ccnc(-n2nnc3c2CCN(C(=O)c2cccc(Cl)c2Cl)[C@@H]3C)c1 (single isomer, unassigned) [Example 394, (R*)-(2,3-dichlorophenyl)(4-methyl-1-(4-methylpyridin-2-yl)-6,7-dihydro-1H-[1,2,3]triazolo[4,5-c]pyridin-5(4H)-yl)methanone]

Second part, the compound before the results:

Compound | PBMC 10 μM (% control)
CCOc1cccnc1-n1nnc2c1CCN(C(=O)c1cccc(C(F)(F)F)c1Cl)[C@@H]2C (single isomer, unassigned) [Example 316, (R*)-(2-chloro-3-(trifluoromethyl)phenyl)(1-(3-ethoxypyridin-2-yl)-4-methyl-6,7-dihydro-1H-[1,2,3]triazolo[4,5-c]pyridin-5(4H)-yl)methanone] | −9.6
CCOc1cccnc1-n1nnc2c1CCN(C(=O)c1cccc(C(F)(F)F)c1Cl)[C@H]2C (single isomer, unassigned) [Example 317, (S*)-(2-chloro-3-(trifluoromethyl)phenyl)(1-(3-ethoxypyridin-2-yl)-4-methyl-6,7-dihydro-1H-[1,2,3]triazolo[4,5-c]pyridin-5(4H)-yl)methanone] | 4.8
C[C@@H]1Cc2c(nnn2-c2ccn[nH]2)CN1C(=O)c1cccc(C(F)(F)F)c1F (single isomer, unassigned) [Example 348, (R*)-(2-fluoro-3-(trifluoromethyl)phenyl)(6-methyl-1-(1H-pyrazol-5-yl)-6,7-dihydro-1H-[1,2,3]triazolo[4,5-c]pyridin-5(4H)-yl)methanone] | 77.7
C[C@@H]1Cc2c(nnn2-c2ccn[nH]2)CN1C(=O)c1cccc(C(F)(F)F)c1Cl (single isomer, unassigned) [Example 350, (R*)-(2-chloro-3-(trifluoromethyl)phenyl)(6-methyl-1-(1H-pyrazol-5-yl)-6,7-dihydro-1H-[1,2,3]triazolo[4,5-c]pyridin-5(4H)-yl)methanone] | 16.2
C[C@H]1Cc2c(nnn2-c2ccn[nH]2)CN1C(=O)c1cccc(C(F)(F)F)c1Cl (single isomer, unassigned) [Example 351, (S*)-(2-chloro-3-(trifluoromethyl)phenyl)(6-methyl-1-(1H-pyrazol-5-yl)-6,7-dihydro-1H-[1,2,3]triazolo[4,5-c]pyridin-5(4H)-yl)methanone] | 0.6
Cc1cc(-n2nnc3c2CCN(C(=O)c2cc(C(F)(F)F)ccc2Cl)[C@@H]3C)ncc1F (single isomer, unassigned) [Example 353, (R*)-(2-chloro-5-(trifluoromethyl)phenyl)(1-(5-fluoro-4-methylpyridin-2-yl)-4-methyl-6,7-dihydro-1H-[1,2,3]triazolo[4,5-c]pyridin-5(4H)-yl)methanone] | 107.5
Cc1cc(-n2nnc3c2CCN(C(=O)c2cc(C(F)(F)F)ccc2Cl)[C@H]3C)ncc1F (single isomer, unassigned) [Example 354, (S*)-(2-chloro-5-(trifluoromethyl)phenyl)(1-(5-fluoro-4-methylpyridin-2-yl)-4-methyl-6,7-dihydro-1H-[1,2,3]triazolo[4,5-c]pyridin-5(4H)-yl)methanone] | 83.4
O=C(c1cccc(Cl)c1Cl)N1CCc2c(ncn2-c2ccccn2)C1 [Example 4, (2,3-Dichlorophenyl)(1-(pyridin-2-yl)-6,7-dihydro-1H-imidazo[4,5-c]pyridin-5(4H)-yl)methanone] | −3.7
CC1c2ncn(-c3ccc(F)cn3)c2CCN1C(=O)c1cccc(C(F)(F)F)c1Cl (stereo not shown) [Example 11, (2-Chloro-3-(trifluoromethyl)phenyl)(1-(5-fluoropyridin-2-yl)-4-methyl-6,7-dihydro-1H-imidazo[4,5-c]pyridin-5(4H)-yl)methanone] | 3.7
